# Data published in PMC5590106 (Biochemical and biophysical research communications, 2017).
# Key:
# Assay type in all cases: biochemical
# [1] = target: T1, C. elegans CED-3 (crude lysate, CED-3L) (Caenorhabditis elegans, UniProt P42573); assay: CED-3 fluorogenic assay
# T1 sequence (P42573 221-374 limits assumed): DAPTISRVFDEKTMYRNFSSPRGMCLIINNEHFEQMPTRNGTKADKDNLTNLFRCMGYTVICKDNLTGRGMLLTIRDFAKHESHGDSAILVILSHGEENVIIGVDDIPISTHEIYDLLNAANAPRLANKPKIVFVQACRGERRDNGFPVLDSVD
# T1 sequence (P42573 389-503 limits assumed): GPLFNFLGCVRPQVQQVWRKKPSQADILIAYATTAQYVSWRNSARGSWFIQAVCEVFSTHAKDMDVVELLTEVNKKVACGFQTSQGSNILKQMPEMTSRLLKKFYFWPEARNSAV
# [2] = target: T2, purified C. elegans CED-3 (Caenorhabditis elegans, UniProt P42573); assay: CED-3 fluorogenic assay; conditions: for Purified CED-3 Hill Slope Value: determined by XLfit in ActivityBase
# T2 sequence (P42573 221-374 limits assumed): T1 sequence (P42573 221-374 limits assumed)
# T2 sequence (P42573 389-503 limits assumed): T1 sequence (P42573 389-503 limits assumed)
# Human Caspase 3 (HCASP3) = target: T3, Human Caspase 3 (HCASP3) (Homo sapiens, UniProt P42574); assay: Human caspase-3 fluorogenic assay
# T3 sequence (P42574 29-175 limits assumed): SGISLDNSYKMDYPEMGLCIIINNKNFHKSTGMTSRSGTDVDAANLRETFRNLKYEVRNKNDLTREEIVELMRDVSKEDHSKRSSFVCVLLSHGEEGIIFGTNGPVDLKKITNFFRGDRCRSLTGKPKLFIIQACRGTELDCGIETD
# T3 sequence (P42574 176-277 limits assumed): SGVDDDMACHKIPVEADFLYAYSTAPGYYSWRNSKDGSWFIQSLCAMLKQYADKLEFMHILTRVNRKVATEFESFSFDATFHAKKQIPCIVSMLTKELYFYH
SMILES,IC50 [1] [µM],IC50 [2] [µM],Purified CED-3 Hill Slope Value [2],also measured
CC(=O)c1ccc(-c2ccc(/C=C3/SC(=S)NC3=O)o2)cc1 [BAS 00253468],21,9,1.79,
O=c1cc2oc3cc(O)c(O)cc3c(-c3ccccn3)c-2cc1O [BAS 05223612],24.5,3.9,1.7,"inhibition of CED-3 (in words) [2]: inhibited; inhibition of HCASP3 (in words) (Human Caspase 3 (HCASP3); dose-response, at the concentrations tested): inhibited"
"CC(=O)N[C@@H](CC(=O)O)C(=O)N[C@@H](CCC(=O)O)C(=O)N[C@H](C(=O)N[C@H](C=O)CC(=O)O)C(C)C [Ac-DEVD-CHO, reference compound]",0.0019,0.0027,,"calculated Hill slope on CED-3L ([1]; crude lysate, Fig. 1A): −0.994"
O=C(/C=C/c1ccccc1)NNC1=NS(=O)(=O)c2ccccc21 [BAS01847186],,,,potency on HCASP3 compared to CED-3 (Human Caspase 3 (HCASP3)): as potent or more so on HCASP3
O=C1NC(=S)N(c2ccc(F)cc2)C(=O)/C1=C/c1ccco1 [BAS 01202237],,,1.5,
COc1ccc(N2C(=O)/C(=C/c3ccco3)C(=O)NC2=S)cc1 [BAS 00519146],,,1.6,"IC50 (Human Caspase 3 (HCASP3); read-out: IC50 HCASP-3, purified HCASP3, Fig. 3C): 10.8 µM"
Nc1ccc(N2Cc3ccccc3C2)cc1 [BAS 01988614],43.1,13.6,0.62,
CCCOC(=O)/C(=C\C=C\c1ccco1)NC(=O)c1ccccc1 [BAS 00187854],34.7,14.6,1.27,
O=C(/C=C/c1ccco1)c1ccc(NC(=O)c2cccs2)cc1 [BAS 00835000],30,4.9,1.38,
